US12410124B2 (priority 2019, dated 2025)
Read-outs that look alike come from different tables or passages of the source.

Legend:
GCLC = assay: Midbrain GCLC expression in MPTP Parkinson's disease model mouse (western blot); type: in vivo; conditions: for Expression (GCLC/GAPDH): midbrain, MPTP Parkinson's disease model mouse, western blot
Experimental: (§1) Neurotoxins can be used to establish PD animal models. Currently, 1-methyl-4-phenyl-1,2,3,6-tetrahydropyridine (MPTP) is the sole synthetic toxin which is recognized to induce PD symptoms in human and non-human primates and in mice. Using MPTP subacute modeling method, C57BL/6J male mice were intraperitoneally injected with MPTP 30 mg/kg, once a day for 5 consecutive days. The experiment animals were divided into blank control group, MPTP model group, and compound treatment group. For the […] compound treatment group, the compound was administrated by gavage for 21 consecutive days after the completion of modeling; for the MPTP model group, the normal saline was administrated by gavage for 21 consecutive days after the completion of modeling; and for the blank control group, the normal saline was first intraperitoneally injected for 5 days, and then administrated by gavage for 21 days.
Oxidative stress is an important pathogenic mechanism of PD. Dopaminergic neurons are more sensitive to oxidative stress and are more susceptible to oxidative stress damage. Glutathione (GSH) is an important antioxidant substance in the cell, and glutamate cysteine ligase (GCL) is the rate-limiting enzyme for GSH synthesis, which is composed of catalytic subunit (GCLC) and regulatory subunit (GCLM). The increase of GCLC expression can promote the synthesis of GSH and enhance the ability of tissue cells against oxidative stress. GCL, a phase II enzyme, plays an important protective role by catalyzing the conversion of free radicals into non-toxic products and increasing their water solubility to facilitate the elimination of free radicals, and maintain the redox balance in the body. It plays an important role in the process of protecting cells against oxidative stress damage. The activation of p38 protein phosphorylation has a negative regulatory effect on phase II enzymes. […] Using GCLC as an indicator, the inhibitory effect of the target compounds on MPTP-induced oxidative stress damage in PD mice can be investigated.
GCLC is expressed in astrocytes, microglial cells, and neurons. The total proteins of the midbrain tissue of mice in each experiment group were extracted, to determine the expression of phase II enzyme GCLC in the midbrain of mice by western blot using GAPDH as the internal reference. The experiment included blank control group, MPTP model group, positive control group (caffeic acid phenethyl ester, CAPE), prototype control group (styryl sulfone compounds 3B, 3C, 3D), and 3G, whose structures are shown as above), and target compound group.

[1] = target: acetylcholinesterase (AchE) (Homo sapiens, UniProt P22303); assay: biochemical
Experimental: The modified Ellman method was used to determine the inhibitory activity on acetylcholinesterase. The principle lies in that acetylthiocholine iodide is decomposed under the action of acetylcholinesterase (AchE) to generate thiocholine. The thiocholine is quickly reacted with DTNB as the colour-developing agent to generate a yellow substance with light absorption at 405 nm. To a 96-well microplate, 50 μl of enzyme reaction buffer, 125 μl of DTNB (3 mM), 25 μl of test sample or positive control drug, and 25 μl of AchE (0.2 U/ml) were successively added. After incubation at room temperature for 5 min, 25 μl of ATCI (15 mM) was added. After incubation at room temperature for 8 min, the absorbance value was determined at 405 nm with a microplate reader. A blank control group without enzyme (25 μl PBS instead of the sample to be tested) was also established.

substantia nigra GFAP = assay: Number of substantia nigra astrocytes with GFAP positive expression in MPTP Parkinson's disease model mouse (immunohistochemistry); type: in vivo; conditions: for Positive cell number (astrocytes with GFAP positive expression): substantia nigra, MPTP Parkinson's disease model mouse, immunohistochemistry
Experimental: as §1
Neuron-glial cell network homeostasis disorder is an important factor for the selective and progressive death of substantia nigra dopaminergic neurons in PD. In the neurotoxic effect of MPTP, the excessive activations of microglial cells and astrocytes produce a variety of inflammatory cytokines and reactive oxygen species (ROS). These inflammatory factors and ROS amplify their respective toxicities and mediate malignant feedback loop, causing a cascade inflammation response and aggravating the pathological process of PD. CD11b and GFAP are the marker proteins for activations of microglial cells and astrocytes, respectively. Therefore, the effect of the target compounds on the activations of the microglial cells and astrocytes in the substantia nigra, hippocampus, and midbrain areas of MPTP-induced PD mice can be investigated, to explore the mechanism of the anti-PD effect of the target compounds by inhibiting the neuroinflammation.
Half of experiment mice in each group were taken to separate the midbrain after perfusion and fixation. The tissue was trimmed, and the substantia nigra area was taken to prepare paraffin sections. The GFAP immunohistochemical staining was performed for the statistics of the change in the number of astrocytes with GFAP positive expression. The experiment included blank control group, MPTP model group, positive control group (caffeic acid phenethyl ester, CAPE), prototype control group (styryl sulfone compounds 3B, 3C, 3D, and 3G, whose structures are shown as above), and target compound group.

primary glial cells = assay: Inhibition of the NO release of primary glial cells induced by LPS; type: cell-based, rat; conditions: for inhibition at 5 µM / inhibition at 10 µM / inhibition at 20 µM / inhibition at 2 µM: Rattus norvegicus, Glial cell, read-out: NO inhibition (%)
From the text: Lipopolysaccharide (LPS) is a main component of the cell wall of Gram-negative bacteria. It is a potent inflammatory factor that can directly activate gliocytes, and the activated gliocytes secrete a large amount of inflammation mediators such as tumor necrosis factor, interleukin, and nitric oxide, thus causing inflammatory reactions and oxidative stress reactions and eventually leading to neuronal denaturation and death. In recent years, the targeted injection of LPS into rat substantia nigra or striatum to induce neuroinflammation can successfully establish PD models, which can simulate most of the clinical manifestations and pathological features of PD, and are used for the study on the neuroinflammation mechanism associated with PD. LPS-induced primary glial cell PD inflammation model is suitable for the preliminary anti-neuroinflammation screening for neuroprotective agents. LPS is used to directly activate primary glial cells to simulate the pathogenesis mechanism of neuroinflammation, and the inhibitory activity of the target compounds on the inflammatory response of primary glial cells can be investigated.
The materials were taken from the brain tissue of fetal rat, for primary glial cell culture. At 7 to 10 days of the culture, LPS was added for the activation of nitric oxide (NO) release in glial cells. When a target compound was added, the reduction value for NO content in the cell culture medium was measured, to evaluate the anti-neuroinflammation activity of the compound. The experiment included blank control group, LPS model group, positive control group (caffeic acid phenethyl ester, CAPE), prototype control group (styryl sulfone compounds 3B, 3C, 3D, and 3G, the structures of which compounds are shown as above), and target compound group.

[2] = acetylcholinesterase, modified Ellman method, read-out: IC50

acetylcholinesterase (AchE), sequence (P22303 32-614, species assumed): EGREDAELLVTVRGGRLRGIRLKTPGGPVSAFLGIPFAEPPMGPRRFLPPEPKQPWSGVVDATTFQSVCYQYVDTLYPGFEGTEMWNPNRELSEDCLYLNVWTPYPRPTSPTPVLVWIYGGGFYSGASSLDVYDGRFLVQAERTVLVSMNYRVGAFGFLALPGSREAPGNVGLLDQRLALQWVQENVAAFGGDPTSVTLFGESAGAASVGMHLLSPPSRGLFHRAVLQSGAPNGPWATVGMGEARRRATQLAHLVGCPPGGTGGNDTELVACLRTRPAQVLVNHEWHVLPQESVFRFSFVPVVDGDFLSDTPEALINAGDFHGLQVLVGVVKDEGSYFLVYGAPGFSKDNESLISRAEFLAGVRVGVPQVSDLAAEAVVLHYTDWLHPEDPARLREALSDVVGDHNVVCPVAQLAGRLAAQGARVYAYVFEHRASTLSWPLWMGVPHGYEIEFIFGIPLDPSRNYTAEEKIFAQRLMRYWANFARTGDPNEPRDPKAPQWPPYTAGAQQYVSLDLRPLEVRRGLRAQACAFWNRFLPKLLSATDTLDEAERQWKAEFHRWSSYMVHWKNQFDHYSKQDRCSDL

| Compound | Expression (GCLC/GAPDH) (GCLC) | IC50 [1, 2] [µM] | Positive cell number (astrocytes with GFAP positive expression) (substantia nigra GFAP) | inhibition at 5 µM (primary glial cells; 5 μM) [%] | inhibition at 10 µM (primary glial cells; 10 μM) [%] | inhibition at 20 µM (primary glial cells; 20 μM) [%] | midbrain GCLC expression compared with the styryl sulfone prototype compounds (GCLC) | number of substantia nigra astrocytes with GFAP positive expression compared with the styryl sulfone prototype compounds (substantia nigra GFAP) | NO inhibitory rate compared with the styryl sulfone prototype compounds (primary glial cells) | IC50 ([1]; read-out: IC50 values (acetylcholinesterase)) [µM] | inhibition at 2 µM (primary glial cells; 2 μM) [%] | IC50 [1] [µM] | inhibition at 2 µM (primary glial cells) [%] | inhibition at 5 µM (primary glial cells) [%] | inhibition at 10 µM (primary glial cells) [%] | inhibition at 20 µM (primary glial cells) [%] | NO inhibition (%) (primary glial cells; 2 μM) | NO inhibition (%) (primary glial cells; 5 μM) | NO inhibition (%) (primary glial cells; 10 μM) |
| --- | --- | --- | --- | --- | --- | --- | --- | --- | --- | --- | --- | --- | --- | --- | --- | --- | --- | --- | --- |
| CC(C)(C)c1ccc(CS(=O)(=O)/C=C/c2ccc(O)c(O)c2)cc1 [Compound 3G, (E)-4-{2-[(4-t-butylphenyl)mesyl]ethenyl}benzene-1,2-diol, reference compound] | 0.57 ± 0.09 | > 100 | 130 ± 6 | 41.2 ± 3.01 | 59.6 ± 2.44 | 85.8 ± 3.88 |  |  |  |  |  |  |  |  |  |  |  |  |  |
| CCN(CC)C(=O)Oc1ccc(/C=C/S(=O)(=O)CCCc2ccccc2)cc1OC(=O)N(CC)CC [Compound C1-1, (E)-4-[2-(3-phenylpropylsulfonyl)ethenyl]-1,2-phenylenebis(diethylcarbamate)] | 1.34 ± 0.08 | 14.7 ± 3.51 | 56 ± 4 | 17.6 ± 3.24 | 32.8 ± 5.25 | 59.5 ± 4.33 | significantly higher | significantly lower | equivalent or higher inhibitory rate |  |  |  |  |  |  |  |  |  |  |
| O=C(/C=C/c1ccc(O)c(O)c1)OCCc1ccccc1 [Positive control group, caffeic acid phenethyl ester, reference compound] | 0.77 ± 0.06 | > 100 | 132 ± 8 | 45.2 ± 3.85 | 77.1 ± 4.37 |  |  |  |  | > 100 | 31.5 ± 5.43 |  |  |  |  |  |  |  |  |
| COc1cc(/C=C/S(=O)(=O)Cc2cc(OC)c(OC)c(OC)c2)ccc1OC(=O)N(c1ccccc1)c1ccccc1 [Compound K3-3, (E)-2-methoxy-4-{2-[(3,4,5-trimethoxyphenyl)mesyl]ethenyl}-phenyl-N,N-diphenylcarbamate] | 0.86 ± 0.04 | 38.3 ± 2.79 | 96 ± 3 | 17.6 ± 3.24 | 40.6 ± 3.11 | 72.5 ± 6.08 |  |  |  |  |  |  |  |  |  |  |  |  |  |
| CCN(CC)C(=O)Oc1ccc(/C=C/S(=O)(=O)Cc2ccc(Cl)cc2)cc1OC(=O)N(CC)CC [Compound D1-1, (E)-4-{2-[(4-chlorophenyl)mesyl]ethenyl}-1,2-phenylenebis(diethylcarbamate)] | 1.29 ± 0.05 | 4.16 ± 1.07 | 64 ± 3 | 61.4 ± 2.77 | 84.5 ± 7.56 |  | significantly higher | significantly lower | equivalent or higher inhibitory rate |  | 24.8 ± 4.08 |  |  |  |  |  |  |  |  |
| Cc1ccc(N2CCN(C(=O)Oc3ccc(/C=C/S(=O)(=O)CCCC(c4ccc(OC(=O)CN(C)C)cc4)N(C)C)cc3OC(=O)N(C)c3ccccc3)CC2)cc1 (stereo not shown) [Compound P1-1, (E)-4-{2-[4-(dimethylamino)-4-(4-(N,N-dimethylglycyloxy)phenyl)butylsulfonyl]ethenyl}-2-(N-methyl-N-phenylcarbamoyloxy)phenyl-4-(p-methylphenyl)piperazine-1-carboxylate] | 0.98 ± 0.06 |  | 73 ± 6 |  |  |  |  |  |  |  |  | 11.3 ± 1.48 | 25.9 ± 3.54 | 40 ± 2.66 | 78.4 ± 3.96 |  |  |  |  |
| CCN(CC)C(=O)Oc1ccc(/C=C/S(=O)(=O)Cc2ccc(C(F)(F)F)cc2)cc1OC(=O)N(CC)CC [Compound B1-1, (E)-4-{2-[(4-trifluoromethylphenyl)mesyl]ethenyl}-1,2-phenylenebis(diethylcarbamate)] | 1.17 ± 0.06 | 13.3 ± 2.85 | 88 ± 5 | 21.6 ± 2.18 | 42.8 ± 3.56 | 97.7 ± 2.04 | significantly higher | significantly lower | equivalent or higher inhibitory rate |  |  |  |  |  |  |  |  |  |  |
| COc1ccc(CC(=O)Oc2ccc(/C(C)=C/S(=O)(=O)/C=C/c3ccc(OC(=O)N(C)C)c(O[Si](C)(C)CCl)c3)cc2)cc1 [Compound P1-7, 4-{(E)-1-[(E)-3-(chloromethyldimethylsiloxy)-4-(N,N-dimethylcarbamoyloxy)styrylsulfonyl]prop-1-en-2-yl}phenyl-2-(4-methoxyphenyl) acetate] | 0.87 ± 0.08 |  | 73 ± 5 |  |  |  |  |  |  |  |  | 21.4 ± 2.07 |  | 21.3 ± 4.43 | 41.2 ± 1.95 | 71 ± 3.67 |  |  |  |
| (E)-2-[(methylamino)methoxy]-4-{2-[1-(4′-nitro-[1,1′-biphenyl]-4-yl)ethylsulfonyl]ethenyl}phenylcarbamate [Compound M1-3] | 0.82 ± 0.07 | 17.6 ± 2.19 | 110 ± 5 |  |  |  |  |  |  |  |  |  |  |  |  |  | 23.93 ± 4.67 | 47.42 ± 4.43 | 73.41 ± 4.83 |
| O=S(=O)(/C=C/c1ccc(O)c(O)c1)Cc1ccc(C(F)(F)F)cc1 [Compound 3B, (E)-4-{2-[(4-trifluoromethylphenyl)mesyl]ethenyl}benzene-1,2-diol, reference compound] | 0.33 ± 0.04 | > 100 | 121 ± 10 | 17.2 ± 4.56 | 38.6 ± 2.13 | 92 ± 3.01 |  |  |  |  |  |  |  |  |  |  |  |  |  |
